Measured values taken from ChEMBL document CHEMBL5584362, “Sucurchalasins A and B, Sulfur-Containing Heterodimers of a Cytochalasan and a Macrolide from the Endophytic Fungus Aspergillus spelaeus GDGJ-286” (J Nat Prod, 2024).
≈ marks a conversion by molar mass, not a printed value. Calls of active or inactive are those of the source. The rule behind the calls is not given here.

Key:
[1] = system: A2780; assay: Induction of apoptosis in human A2780 cells assessed as chromatin condensation at 1 to 9 uM measured after 48 hrs by Hoechst 33258 staining based assay; format: functional, cell-based; details: dose 1-9 µM
[2] = system: A2780; assay: Induction of apoptosis in human A2780 cells assessed as early apoptotic cells at 1 uM measured after 48 hrs by Annexin V-FITC/PI staining based FACS analysis (reference value: 1.68 to 1.9%); format: functional
[3] = system: A2780; assay: Induction of apoptosis in human A2780 cells assessed as viable cells at 3 uM measured after 48 hrs by Annexin V-FITC/PI staining based FACS analysis (reference value: 92.6 to 92.8%); format: functional; details: read-out: Activity
[4] = system: HeLa; assay: Cytotoxicity against human HeLa cells by MTT assay; format: functional, cell-based
[5] = system: A2780; assay: Induction of apoptosis in human A2780 cells assessed as necrotic cells at 1 uM measured after 48 hrs by Annexin V-FITC/PI staining based FACS analysis (reference value: 1.34 to 3.3%); format: functional
[6] = system: A2780; assay: Induction of apoptosis in human A2780 cells assessed as early apoptotic cells at 9 uM measured after 48 hrs by Annexin V-FITC/PI staining based FACS analysis (reference value: 1.68 to 1.9%); format: functional
[7] = system: A2780; assay: Induction of apoptosis in human A2780 cells assessed as increase in early apoptotic cells measured after 48 hrs by Annexin V-FITC/PI staining based FACS analysis; format: functional, cell-based; details: dose 1-9 µM
[8] = system: A2780; assay: Induction of apoptosis in human A2780 cells assessed as late apoptotic cells at 9 uM measured after 48 hrs by Annexin V-FITC/PI staining based FACS analysis (reference value: 2.32 to 2.4%); format: functional
[9] = system: Salmonella typhi; assay: Antibacterial activity against Salmonella typhi at 25 ug/ml measured after 20 to 45 mins by broth microdilution method; format: functional, organism-based; details: Salmonella enterica subsp. enterica serovar Typhi; dose 25.0 µg/ml, time 20-45 min
[10] = system: A2780; assay: Induction of apoptosis in human A2780 cells assessed as necrotic cells at 3 uM measured after 48 hrs by Annexin V-FITC/PI staining based FACS analysis (reference value: 1.34 to 3.3%); format: functional
[11] = system: A2780; assay: Induction of apoptosis in human A2780 cells assessed as viable cells at 1 uM measured after 48 hrs by Annexin V-FITC/PI staining based FACS analysis (reference value: 92.6 to 92.8%); format: functional; details: read-out: Activity
[12] = system: A2780; assay: Induction of apoptosis in human A2780 cells assessed as early apoptotic cells at 3 uM measured after 48 hrs by Annexin V-FITC/PI staining based FACS analysis (reference value: 1.68 to 1.9%); format: functional
[13] = system: Vibrio parahaemolyticus; assay: Antibacterial activity against Vibrio parahaemolyticus at 25 ug/ml measured after 20 to 45 mins by broth microdilution method; format: functional, organism-based; details: dose 25.0 µg/ml, time 20-45 min
[14] = system: A2780; assay: Induction of apoptosis in human A2780 cells assessed as chromatin fragmentation at 1 to 9 uM measured after 48 hrs by Hoechst 33258 staining based assay; format: functional, cell-based; details: dose 1-9 µM
[15] = system: A2780; assay: Induction of apoptosis in human A2780 cells assessed as late apoptotic cells at 3 uM measured after 48 hrs by Annexin V-FITC/PI staining based FACS analysis (reference value: 2.32 to 2.4%); format: functional
[16] = system: SK-OV-3; assay: Cytotoxicity against human SK-OV-3 cells by MTT assay; format: functional, cell-based
[17] = system: A2780; assay: Induction of apoptosis in human A2780 cells assessed as necrotic cells at 9 uM measured after 48 hrs by Annexin V-FITC/PI staining based FACS analysis (reference value: 1.34 to 3.3%); format: functional
[18] = system: HepG2; assay: Cytotoxicity against human HepG2 cells by MTT assay; format: functional, cell-based
[19] = system: Escherichia coli; assay: Antibacterial activity against Escherichia coli at 25 ug/ml measured after 20 to 45 mins by broth microdilution method; format: functional, organism-based; details: dose 25.0 µg/ml, time 20-45 min
[20] = system: A2780; assay: Induction of apoptosis in human A2780 cells assessed as increase in late apoptotic cells measured after 48 hrs by Annexin V-FITC/PI staining based FACS analysis; format: functional, cell-based; details: dose 1-9 µM
[21] = system: A2780; assay: Cytotoxicity against human A2780 cells by MTT assay; format: functional, cell-based
[22] = system: Bacillus subtilis; assay: Antibacterial activity against Bacillus subtilis measured after 20 to 45 mins by broth microdilution method; format: functional; details: time 20-45 min
[23] = system: Shigella dysenteriae; assay: Antibacterial activity against Shigella dysenteriae measured after 20 to 45 mins by broth microdilution method; format: functional; details: time 20-45 min
[24] = system: A2780; assay: Induction of apoptosis in human A2780 cells assessed as viable cells at 9 uM measured after 48 hrs by Annexin V-FITC/PI staining based FACS analysis (reference value: 92.6 to 92.8%); format: functional; details: read-out: Activity
[25] = system: Staphylococcus aureus; assay: Antibacterial activity against Staphylococcus aureus at 25 ug/ml measured after 20 to 45 mins by broth microdilution method; format: functional, organism-based; details: dose 25.0 µg/ml, time 20-45 min
[26] = system: Enterococcus faecalis; assay: Antibacterial activity against Enterococcus faecalis measured after 20 to 45 mins by broth microdilution method; format: functional; details: time 20-45 min
[27] = system: A2780; assay: Induction of apoptosis in human A2780 cells assessed as late apoptotic cells at 1 uM measured after 48 hrs by Annexin V-FITC/PI staining based FACS analysis (reference value: 2.32 to 2.4%); format: functional
[28] = system: Shigella dysenteriae; assay: Antibacterial activity against Shigella dysenteriae at 25 ug/ml measured after 20 to 45 mins by broth microdilution method; format: functional, organism-based; details: dose 25.0 µg/ml, time 20-45 min
[29] = system: Escherichia coli; assay: Antibacterial activity against Escherichia coli measured after 20 to 45 mins by broth microdilution method; format: functional; details: time 20-45 min
[30] = system: Vibrio parahaemolyticus; assay: Antibacterial activity against Vibrio parahaemolyticus measured after 20 to 45 mins by broth microdilution method; format: functional; details: time 20-45 min
[31] = system: Salmonella typhi; assay: Antibacterial activity against Salmonella typhi measured after 20 to 45 mins by broth microdilution method; format: functional, Salmonella enterica subsp. enterica serovar Typhi; details: Salmonella enterica; time 20-45 min
[32] = system: Staphylococcus aureus; assay: Antibacterial activity against Staphylococcus aureus measured after 20 to 45 mins by broth microdilution method; format: functional; details: time 20-45 min

| SMILES | Activity [1] | Activity [2] [%] | viability at 3 µM [3] [%] | IC50 [4] [µM] | Activity [5] [%] | Activity [6] [%] | Activity [7] | Activity [8] [%] | Activity [9] | Activity [10] [%] | viability at 1 µM [11] [%] | Activity [12] [%] | Activity [13] | IC50 [16] [µM] | IC50 [18] [µM] | IC50 [21] [µM] | MIC [22] [µg/mL] | MIC [23] [µg/mL] | Activity [25] | MIC [26] [µg/mL] | further results |
| --- | --- | --- | --- | --- | --- | --- | --- | --- | --- | --- | --- | --- | --- | --- | --- | --- | --- | --- | --- | --- | --- |
| CC1=C[C@@H]2/C=C(\C)CC[C@@H](O)C(=O)C[C@@H](S[C@@H]3CCC[C@H](C)OC(=O)Cc4cc(O)cc(O)c4C(=O)C3)C(=O)[C@]23C(=O)N[C@@H](CC(C)C)[C@@H]3[C@@H]1C | Active | 1.35 | 90.9 | 10 | 2.91 | 56.8 | Dose-Dependent Effect | 14.9 | inactive | 1.38 | 94 | 4.85 | inactive | 13 | 15 | 3.9 | 6.3 (≈ 8.7 µM) | 13 (≈ 18 µM) | inactive | 3.1 (≈ 4.28 µM) | Activity [14]: Active; Activity [15]: 2.87%; Activity [17]: 1.19%; Activity [19]: inactive; Activity [20]: Dose-Dependent Effect; viability at 9 µM [24]: 27.1%; Activity [27]: 1.71% |
| CC1=C[C@@H]2/C=C(\C)CC[C@@H](O)[C@@H](O)/C=C/C(=O)[C@]23C(=O)N[C@@H](CC(C)C)[C@@H]3[C@@H]1C | – | – | – | > 20 | – | – | – | – | inactive | – | – | – | inactive | > 20 | > 20 | > 20 | 6.3 (≈ 15.7 µM) | – | inactive | 6.3 (≈ 15.7 µM) | Activity [28]: inactive; Activity [19]: inactive |
| CC1=C[C@@H]2/C=C(\C)CC[C@@H](O)C(=O)C[C@@H](S[C@H]3CCC[C@H](C)OC(=O)Cc4cc(O)cc(O)c4C(=O)C3)C(=O)[C@]23C(=O)N[C@@H](CC(C)C)[C@@H]3[C@@H]1C | Active | 1.4 | 87 | 23 | 4.07 | 53.2 | Dose-Dependent Effect | 19.1 | inactive | 2.16 | 91 | 5.4 | inactive | 20 | 11 | 8.3 | 6.3 (≈ 8.7 µM) | 13 (≈ 18 µM) | inactive | 3.1 (≈ 4.28 µM) | Activity [14]: Active; Activity [15]: 5.46%; Activity [17]: 1.87%; Activity [19]: inactive; Activity [20]: Dose-Dependent Effect; viability at 9 µM [24]: 26%; Activity [27]: 3.56% |
| C[C@H]1CC/C=C\CC(=O)c2c(O)cc(O)cc2CC(=O)O1 | – | – | – | > 20 | – | – | – | – | – | – | – | – | – | > 20 | > 20 | > 20 | > 25 | > 25 | – | > 25 | MIC [29]: > 25 µg/mL; MIC [30]: > 25 µg/mL; MIC [31]: > 25 µg/mL; MIC [32]: > 25 µg/mL |
| C[C@H]1CCC/C=C/C(=O)c2c(O)cc(O)cc2CC(=O)O1 [DEHYDROCURVULARIN] | Active | 2.2 | 80.8 | 7.9 | 1.68 | 51.6 | Dose-Dependent Effect | 12.2 | inactive | 2.09 | 94.2 | 11.1 | – | 20 | 12 | 4.3 | 3.1 (≈ 10.7 µM) | 6.3 (≈ 21.7 µM) | inactive | 13 (≈ 44.8 µM) | MIC [29]: 25 µg/mL (≈ 86.1 µM); MIC [30]: 25 µg/mL (≈ 86.1 µM); Activity [14]: Active; Activity [15]: 5.07%; Activity [17]: 2.11%; Activity [20]: Dose-Dependent Effect; viability at 9 µM [24]: 34.1%; Activity [27]: 1.87% |
